We go through 15 molecules from US20260109721A1, “IONIZABLE CATIONIC LIPIDS INCORPORATING SILICON: SYNTHESIS AND LNP FORMULATION” (priority 2023, published 2026).

The test system of one data set is HeLa cells. As to the kind of experiment: Cell viability assessment with MTT assay (Method B). In kind it is cell-based. Particulars: 24 h. As for the experimental part: (§1) The synthesized lipids were tested in term of in vitro transfection efficacy and toxicity on HeLa cells. In order to perform the mentioned biological tests, appropriate LNPs had to be formulated from the synthesized lipids. The formulation technique was different in Method A and B. The particle size, polydispersity index (PDI) and zeta potential of resulting LNPs were determined by means of Dynamic Light Scattering technique (DLS). Prior to biological testing the encapsulation efficiency (EE) of the loaded LNPs was determined by using RiboGreen RNA assay. In case of Method A Luc mRNA while in case of Method B GFP mRNA was transfected into the cells. In parallel with the transfection experiments, toxicity of the investigated LNPs was determined, in case of Method A resazurin assay while in case of Method B MTT assay was used. Additionally, the toxicity of the lipids was investigated on HepG2 cells and IC50 values were determined.
• MEM (Sigma, cat #M5650-500 mL) • Fetal Bovine Serum, FBS (Sigma, cat #F7524-500 mL) • Thiazolyl Blue Tetrazolium Bromide, MTT (TCI Chemicals, cat #D0801-5G) • Solutions of the formulations (see “Preparation of GFP mRNA loaded LNP” protocol) • Dilutor: 10 mL MEM+0,036 mL ethanol • Phosphate buffered saline, PBS
• 1. Plate 10,000 HeLa cells per well in 96 well plate. […] Total 60 wells should be seeded. Incubate in MEM+10% FBS at 37° C. in a humidified atmosphere with 5% CO2 for 24 h. • 2. Examine under the microscope. Confluency must be at or nearly 80%. • 3. Gently remove the media (aspirate). Place 50 μL of the following formulations: • a) 6 wells with dilutor—negative control • b) 6 wells with Lipofectamine-50—positive control. • c) 6 wells with Lipofectamine-6—secondary positive control • d) 6 wells per formulations—test samples. • 4. Incubate plate for 1 hours at 37° C. • 5. Add 50 μL of MEM+20% FBS (which will become 10% upon dilution). • 6. […] Measure the absorbance of each well at 570 nm using a microplate reader. Measure the absorbance at a reference wavelength of 650 nm to subtract background absorbance. • 11. […]
For the molecule `CCCCC/C=C\C/C=C\CCCCCCCCOC(CCCCCCC/C=C\C/C=C\CCCCC)O[Si](C)(C)OCCCCCCN(CCO)CCO` (stereo not drawn) [Example 48, (23Z,26Z)-13-((8Z,11Z)-heptadeca-8,11-dien-1-yl)-3-(2-hydroxyethyl)-11,11-dimethyl-10,12,14-trioxa-3-aza-11-siladotriaconta-23,26-dien-1-ol], the “Cell Viability %” value stood at 51.5%. Consider `CCCCC/C=C\C/C=C\CCCCCCCCOC(CCCCCCC/C=C\C/C=C\CCCCC)O[Si](C)(C)OCCCCCCN(C)CCO` (stereo not drawn) [Example 56, (23Z,26Z)-13-((8Z,11Z)-heptadeca-8,11-dien-1-yl)-3,11,11-trimethyl-10,12,14-trioxa-3-aza-11-siladotriaconta-23,26-dien-1-ol], for which the “Cell Viability %” value was 40.2%.

With `CCCCC/C=C\C/C=C\CCCCCCCCOC(CCCCCCC/C=C\C/C=C\CCCCC)O[Si](C)(C)OCCCCCCN1CCN(CCO)CC1` (stereo not drawn) [Example 58, 2-(4-((20Z,23Z)-10-((8Z,11Z)-heptadeca-8,11-dien-1-yl)-8,8-dimethyl-7,9,11-trioxa-8-silanonacosa-20,23-dien-1-yl)piperazin-1-yl)ethan-1-ol], the “Cell Viability %” value is 52.1%.

Tested on in the next data set: not listed separately
As to the kind of experiment: Encapsulation efficiency of loaded LNPs, RiboGreen RNA assay (Method A). In kind it is physicochemical. Particulars: encapsulation efficiency of mRNA-loaded LNP, Method A, RiboGreen. How it is done: as §1
• 1. Preparation of sample stock solutions: In the top row of the 96-well plate (Row A in the plate), add 297 μL of TE buffer pH 7.4 (see Table 1) to a single well for each sample plus a single well for a PBS blank using a multichannel pipette.
• 2. Add 3 μL of sample (at 0.5 mg/ml) to these wells for a final volume of 300 μL. Add 3 μL of PBS to the blank well. Pipette to mix. This is your stock solution for each sample. The final RNA concentration of these stock solutions should be approximately 4-7 μg/mL. • 3. mRNA-LNP sample setup: • a. Add 50 μL of TE buffer pH 7.5 to the two wells directly below each sample (Rows B and C in the plate). • b. Add 50 μL of sample stock solution from Row A into the wells in Rows B and C (this assay is run in duplicate. All liquid handling should be done using a multichannel pipette). • c. Add 50 μL of Triton buffer to the wells in Rows D and E (in the plate) below each sample. • d. Add 50 μL of sample stock solution from Row A into the wells in Rows D and E. • 4. RiboGreen RNA standard curve setup: Dilute the RNA standard to produce an RNA stock at a final concentration of 20 μg/mL in TE buffer pH 7.4. The final volume should be 150 μL. Set up a standard curve (in duplicate) as using the RNA stock (20 μg/mL siRNA), TE buffer pH 7.5, and Triton X-100 buffer according the Table 2 and Table 3 below.
• 5. Once samples and standard curve are plated, incubate the plate at 37° C. for 10 min to lyse mRNA-LNP in the presence of Triton X-100 buffer. • 6. Meanwhile, prepare RiboGreen Solution: Sum the total number of sample wells and standard curve wells. Add three to this number, and multiply the total by 100. This is the total volume, in μL, of RiboGreen Solution needed for this assay. In a 15 mL RNAse-free Falcon tube, dilute the RiboGreen Reagent 1:100 into TE buffer pH 7.5 to the total volume calculated. • 7. Addition of RiboGreen Solution and sample readings: Remove a 96-well plate from 37° C. incubator; let it cool to room temperature as RiboGreen binding is somewhat temperature dependent. Add 100 μL of RiboGreen Solution to each well. Pop any air bubbles with a needle. Read using fluorescent plate reader (excitation=480, emission=525). • 8. Sample analysis: Use the data generated by the RiboGreen standard curve to calculate the concentration of mRNA. Transfection Efficiency with Luciferase-mRNA (Method A)
`CCCCC/C=C\C/C=C\CCCCCCCCOC(CCCCCCC/C=C\C/C=C\CCCCC)O[Si](C)(C)OCCCCCCN(CCO)CCO` (stereo not drawn) [Example 48, (23Z,26Z)-13-((8Z,11Z)-heptadeca-8,11-dien-1-yl)-3-(2-hydroxyethyl)-11,11-dimethyl-10,12,14-trioxa-3-aza-11-siladotriaconta-23,26-dien-1-ol]: the “EE (%)” value was found to be 85%. On the same count and under the same terms, for `CCCCC/C=C\C/C=C\CCCCCCCCOC(CCCCCCC/C=C\C/C=C\CCCCC)O[Si](C)(C)OCCCCCCN(C)CCO` (stereo not drawn) [Example 56, (23Z,26Z)-13-((8Z,11Z)-heptadeca-8,11-dien-1-yl)-3,11,11-trimethyl-10,12,14-trioxa-3-aza-11-siladotriaconta-23,26-dien-1-ol] the value was 85%; for `CCCCC/C=C\C/C=C\CCCCCCCCOC(CCCCCCC/C=C\C/C=C\CCCCC)O[Si](C)(C)OCCCCCCN1CCN(CCO)CC1` (stereo not drawn) [Example 58, 2-(4-((20Z,23Z)-10-((8Z,11Z)-heptadeca-8,11-dien-1-yl)-8,8-dimethyl-7,9,11-trioxa-8-silanonacosa-20,23-dien-1-yl)piperazin-1-yl)ethan-1-ol], 86%; for `CCCCCCCC/C=C\CCCCCCCCOC(=O)C(C)(C)CC(OCCCCCCCC/C=C\CCCCCCCC)O[Si](C)(C)OCCCCCCN1CCCCC1` (stereo not drawn) [Example 87, (Z)-octadec-9-en-1-yl 4-((dimethyl((6-(piperidin-1-yl)hexyl)oxy)silyl)oxy)-2,2-dimethyl-4-(((Z)-octadec-9-en-1-yl)oxy)butanoate], 89%. As for `CCCCCCCC/C=C\CCCCCCCCOC(=O)C(C)(C)CC(OCCCCCCCC/C=C\CCCCCCCC)O[Si](C)(C)OCCCCCCN(CCCO)CCCO` (stereo not drawn) [Example 88, (Z)-octadec-9-en-1-yl 1-hydroxy-4-(3-hydroxypropyl)-12,12,16,16-tetramethyl-14-(((Z)-octadec-9-en-1-yl)oxy)-11,13-dioxa-4-aza-12-silaheptadecan-17-oate], the “EE (%)” value is listed as 87%. On to `CCCCCCCC/C=C\CCCCCCCCOC(=O)C(C)(C)CC(OCCCCCCCC/C=C\CCCCCCCC)O[Si](C)(C)OCCCCCCN1CCCCC1CO` (stereo not drawn) [Example 89, (Z)-octadec-9-en-1-yl 4-((((6-(2-(hydroxymethyl)piperidin-1-yl)hexyl)oxy)dimethylsilyl)oxy)-2,2-dimethyl-4-(((Z)-octadec-9-en-1-yl)oxy)butanoate], for which the “EE (%)” value stood at 89%. As for `CCCCCCCC/C=C\CCCCCCCCOC(=O)C(C)(C)CC(OCCCCCCCC/C=C\CCCCCCCC)O[Si](C)(C)OCCCCCCN1CCCC1CO` (stereo not drawn) [Example 90, (Z)-octadec-9-en-1-yl 4-((((6-(2-(hydroxymethyl)pyrrolidin-1-yl)hexyl)oxy)dimethylsilyl)oxy)-2,2-dimethyl-4-(((Z)-octadec-9-en-1-yl)oxy)butanoate], the “EE (%)” value is listed as 87%. Same read-out and setting: for `CCCCCCCC/C=C\CCCCCCCCOC(=O)C(C)(C)CC(OCCCCCCCC/C=C\CCCCCCCC)O[Si](C)(C)OCCCCCCN(C)CCCCO` (stereo not drawn) [Example 91, (Z)-octadec-9-en-1-yl 18-hydroxy-2,2,6,6,14-pentamethyl-4-(((Z)-octadec-9-en-1-yl)oxy)-5,7-dioxa-14-aza-6-silaoctadecanoate] the value was 88%; for `CCCCCCCC/C=C\CCCCCCCCOC(=O)C(C)(C)CC(OCCCCCCCC/C=C\CCCCCCCC)O[Si](C)(C)OCCCCCCN(C)CC(O)CO` (stereo not drawn) [Example 92, (Z)-octadec-9-en-1-yl 1,2-dihydroxy-4,12,12,16,16-pentamethyl-14-(((Z)-octadec-9-en-1-yl)oxy)-11,13-dioxa-4-aza-12-silaheptadecan-17-oate], 89%; for `CCCCCCCC/C=C\CCCCCCCCOC(=O)C(C)(C)CC(OCCCCCCCC/C=C\CCCCCCCC)O[Si](C)(C)OCCCCCCN(C)CCO` (stereo not drawn) [Example 93, (Z)-octadec-9-en-1-yl 1-hydroxy-3,11,11,15,15-pentamethyl-13-(((Z)-octadec-9-en-1-yl)oxy)-10,12-dioxa-3-aza-11-silahexadecan-16-oate], 88%.

`CCCCCCCC/C=C\CCCCCCCCOC(=O)C(C)(C)CCC(OCCCCCCCC/C=C\CCCCCCCC)O[Si](C)(C)OCCCCCCN(CCO)CCO` (stereo not drawn) [Example 94, (Z)-octadec-9-en-1-yl 1-hydroxy-3-(2-hydroxyethyl)-11,11,16,16-tetramethyl-13-(((Z)-octadec-9-en-1-yl)oxy)-10,12-dioxa-3-aza-11-silaheptadecan-17-oate]: the “EE (%)” value was found to be 86%. In the case of `CCCCCCCC/C=C\CCCCCCCCOC(=O)C(C)(C)CCC(OCCCCCCCC/C=C\CCCCCCCC)O[Si](C)(C)OCCCCCCN1CCOCC1` (stereo not drawn) [Example 95, (Z)-octadec-9-en-1-yl 5-((dimethyl((6-morpholinohexyl)oxy)silyl)oxy)-2,2-dimethyl-5-(((Z)-octadec-9-en-1-yl)oxy)pentanoate], the “EE (%)” value is given as 88%.

In the case of `CCCCCCCC/C=C\CCCCCCCCOC(=O)C(C)(C)CC(OCCCCCCCC/C=C\CCCCCCCC)O[Si](C)(C)OCCCCCCN(CCO)CCN(CCO)CCCCCCO[Si](C)(C)OC(CC(C)(C)C(=O)OCCCCCCCC/C=C\CCCCCCCC)OCCCCCCCC/C=C\CCCCCCCC` (stereo not drawn) [Example 96, di((Z)-octadec-9-en-1-yl) 14,17-bis(2-hydroxyethyl)-2,2,6,6,25,25,29,29-octamethyl-4,27-bis(((Z)-octadec-9-en-1-yl)oxy)-5,7,24,26-tetraoxa-14,17-diaza-6,25-disilatriacontanedioate], the “EE (%)” value turned out to be 89%. On the same count and under the same terms, to `C#CCN(C)CCCCCCO[Si](C)(C)OC(CC(C)(C)C(=O)OCCCCCCCC/C=C\CCCCCCCC)OCCCCCCCC/C=C\CCCCCCCC` (stereo not drawn) [Example 97, (Z)-octadec-9-en-1-yl 4,12,12,16,16-pentamethyl-14-(((Z)-octadec-9-en-1-yl)oxy)-11,13-dioxa-4-aza-12-silaheptadec-1-yn-17-oate] belongs 86%; to `CCCCCCCCCCCOC(=O)CCCCCN(CCO)CCCCCCCC(=O)OC(CCCCCCCC)CCCCCCCC` [SM-102, reference compound], 88%.
